Measurements: ChEMBL document CHEMBL4507268 (2021)

Legend:
Conditions in all cases: Compound concentration 1.0 uM
[1] = molecular target: Calcium/calmodulin-dependent protein kinase kinase 1 (Homo sapiens) (UniProt Q8N5S9)
[2] = molecular target: Cyclin-dependent kinase 2/cyclin A (Homo sapiens) (UniProt P24941+P20248+P78396)
[3] = molecular target: T1, Cyclin-dependent kinase-like 2 (Homo sapiens) (UniProt Q92772)
T1 sequence (whole entry): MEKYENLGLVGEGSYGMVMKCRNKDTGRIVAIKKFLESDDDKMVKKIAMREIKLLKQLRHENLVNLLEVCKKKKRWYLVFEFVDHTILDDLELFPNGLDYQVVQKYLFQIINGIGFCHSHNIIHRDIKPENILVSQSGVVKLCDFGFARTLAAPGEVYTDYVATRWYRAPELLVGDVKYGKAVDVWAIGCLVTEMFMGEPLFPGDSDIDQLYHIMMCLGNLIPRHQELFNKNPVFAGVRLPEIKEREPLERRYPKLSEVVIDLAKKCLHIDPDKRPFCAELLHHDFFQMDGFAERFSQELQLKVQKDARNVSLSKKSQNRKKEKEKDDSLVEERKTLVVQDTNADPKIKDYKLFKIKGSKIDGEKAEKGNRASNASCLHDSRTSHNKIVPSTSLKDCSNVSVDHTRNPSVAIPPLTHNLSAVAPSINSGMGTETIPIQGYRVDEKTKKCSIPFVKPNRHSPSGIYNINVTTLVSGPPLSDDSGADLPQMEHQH

[4] = molecular target: Casein kinase I isoform gamma-2 (Homo sapiens) (UniProt P78368)
Casein kinase I isoform gamma-2 (Homo sapiens), sequence (P78368 whole entry, looked up, canonical isoform): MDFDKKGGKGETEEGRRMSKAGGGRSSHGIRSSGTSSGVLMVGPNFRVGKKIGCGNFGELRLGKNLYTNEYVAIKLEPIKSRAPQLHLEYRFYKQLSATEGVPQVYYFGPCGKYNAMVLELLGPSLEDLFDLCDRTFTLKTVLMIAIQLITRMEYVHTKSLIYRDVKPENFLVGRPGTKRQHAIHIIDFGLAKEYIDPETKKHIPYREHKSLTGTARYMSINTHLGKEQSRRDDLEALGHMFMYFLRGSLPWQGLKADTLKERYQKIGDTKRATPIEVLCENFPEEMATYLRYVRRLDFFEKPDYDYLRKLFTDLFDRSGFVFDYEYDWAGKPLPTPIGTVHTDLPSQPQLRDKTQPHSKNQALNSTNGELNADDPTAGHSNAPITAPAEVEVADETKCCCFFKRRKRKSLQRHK

[5] = molecular target: T2, Rhodopsin kinase GRK7 (Homo sapiens) (UniProt Q8WTQ7)
T2 sequence (whole entry): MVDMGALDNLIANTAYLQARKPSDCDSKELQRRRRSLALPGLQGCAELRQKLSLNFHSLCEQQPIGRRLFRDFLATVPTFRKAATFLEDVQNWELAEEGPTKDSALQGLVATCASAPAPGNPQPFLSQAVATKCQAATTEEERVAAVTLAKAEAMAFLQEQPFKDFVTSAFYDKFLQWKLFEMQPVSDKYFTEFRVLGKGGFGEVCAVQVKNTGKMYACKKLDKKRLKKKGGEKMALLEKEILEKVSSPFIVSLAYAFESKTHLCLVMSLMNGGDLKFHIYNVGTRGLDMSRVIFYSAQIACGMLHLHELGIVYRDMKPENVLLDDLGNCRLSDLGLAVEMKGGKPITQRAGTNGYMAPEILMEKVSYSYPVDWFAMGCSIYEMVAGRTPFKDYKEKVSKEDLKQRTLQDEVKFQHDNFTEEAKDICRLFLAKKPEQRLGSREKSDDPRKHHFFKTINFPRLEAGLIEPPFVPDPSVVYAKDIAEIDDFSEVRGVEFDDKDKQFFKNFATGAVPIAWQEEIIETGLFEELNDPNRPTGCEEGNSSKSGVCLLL

[6] = molecular target: Insulin receptor (Homo sapiens) (UniProt P06213)
Insulin receptor (Homo sapiens), sequence (P06213 28-758 limits assumed): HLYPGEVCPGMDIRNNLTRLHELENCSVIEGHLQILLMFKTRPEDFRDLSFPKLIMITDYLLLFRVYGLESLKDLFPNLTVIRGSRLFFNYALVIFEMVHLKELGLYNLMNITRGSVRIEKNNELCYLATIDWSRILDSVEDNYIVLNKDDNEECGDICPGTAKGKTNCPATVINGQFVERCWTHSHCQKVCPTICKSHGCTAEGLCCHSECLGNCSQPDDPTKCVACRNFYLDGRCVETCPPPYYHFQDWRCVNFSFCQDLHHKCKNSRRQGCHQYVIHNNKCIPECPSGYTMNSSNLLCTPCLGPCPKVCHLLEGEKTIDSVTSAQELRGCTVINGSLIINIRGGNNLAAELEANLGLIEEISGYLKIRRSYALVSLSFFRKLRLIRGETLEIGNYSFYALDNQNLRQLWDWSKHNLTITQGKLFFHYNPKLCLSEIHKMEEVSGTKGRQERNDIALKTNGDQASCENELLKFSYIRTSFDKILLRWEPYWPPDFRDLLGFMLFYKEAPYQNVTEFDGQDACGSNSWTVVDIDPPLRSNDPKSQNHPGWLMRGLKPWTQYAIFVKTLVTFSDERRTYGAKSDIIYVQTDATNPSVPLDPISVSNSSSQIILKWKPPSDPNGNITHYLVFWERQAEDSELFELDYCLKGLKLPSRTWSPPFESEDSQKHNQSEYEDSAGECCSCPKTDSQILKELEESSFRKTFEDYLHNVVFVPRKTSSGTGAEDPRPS
Insulin receptor (Homo sapiens), sequence (P06213 763-1382 limits assumed): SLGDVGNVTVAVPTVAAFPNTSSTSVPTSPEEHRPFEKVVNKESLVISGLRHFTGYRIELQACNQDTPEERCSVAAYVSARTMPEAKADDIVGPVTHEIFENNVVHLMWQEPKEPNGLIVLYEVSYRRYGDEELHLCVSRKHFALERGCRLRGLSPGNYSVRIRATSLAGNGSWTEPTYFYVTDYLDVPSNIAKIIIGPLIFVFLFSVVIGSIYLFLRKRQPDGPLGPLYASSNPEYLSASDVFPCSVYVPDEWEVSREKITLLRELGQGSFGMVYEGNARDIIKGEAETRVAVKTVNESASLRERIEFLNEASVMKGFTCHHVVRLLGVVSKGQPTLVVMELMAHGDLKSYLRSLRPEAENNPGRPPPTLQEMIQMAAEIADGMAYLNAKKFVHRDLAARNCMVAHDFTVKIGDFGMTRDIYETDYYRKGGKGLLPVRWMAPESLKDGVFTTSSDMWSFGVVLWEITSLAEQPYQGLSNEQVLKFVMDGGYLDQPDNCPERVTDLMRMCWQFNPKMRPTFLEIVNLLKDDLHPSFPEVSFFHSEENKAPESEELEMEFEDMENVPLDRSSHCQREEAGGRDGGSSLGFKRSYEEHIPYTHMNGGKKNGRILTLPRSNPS

[7] = molecular target: Leucine-rich repeat serine/threonine-protein kinase 2 (Homo sapiens) (UniProt Q5S007)
[8] = molecular target: T3, Serine/threonine-protein kinase tousled-like 1 (Homo sapiens) (UniProt Q9UKI8)
T3 sequence (whole entry): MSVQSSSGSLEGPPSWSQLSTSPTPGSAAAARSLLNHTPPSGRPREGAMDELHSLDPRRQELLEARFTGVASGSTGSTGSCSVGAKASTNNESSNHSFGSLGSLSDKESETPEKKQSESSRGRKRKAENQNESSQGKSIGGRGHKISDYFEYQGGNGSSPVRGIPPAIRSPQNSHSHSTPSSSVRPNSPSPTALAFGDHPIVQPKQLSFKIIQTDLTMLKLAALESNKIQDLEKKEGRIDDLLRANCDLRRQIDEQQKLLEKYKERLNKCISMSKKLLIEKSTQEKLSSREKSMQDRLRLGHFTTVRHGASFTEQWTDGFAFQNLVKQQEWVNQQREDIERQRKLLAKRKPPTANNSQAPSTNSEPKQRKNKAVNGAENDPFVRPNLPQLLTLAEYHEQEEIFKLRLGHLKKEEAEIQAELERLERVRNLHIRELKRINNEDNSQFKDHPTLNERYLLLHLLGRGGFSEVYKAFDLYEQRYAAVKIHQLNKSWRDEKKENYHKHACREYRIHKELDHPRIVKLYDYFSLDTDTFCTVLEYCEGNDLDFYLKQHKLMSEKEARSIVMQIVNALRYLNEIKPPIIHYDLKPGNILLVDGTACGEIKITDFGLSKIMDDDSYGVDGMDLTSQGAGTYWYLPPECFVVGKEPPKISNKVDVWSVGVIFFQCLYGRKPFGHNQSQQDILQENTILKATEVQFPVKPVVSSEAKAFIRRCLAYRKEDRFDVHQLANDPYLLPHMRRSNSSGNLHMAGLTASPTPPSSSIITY

[9] = molecular target: Serine/threonine-protein kinase VRK1 (Homo sapiens) (UniProt Q99986)
Serine/threonine-protein kinase VRK1 (Homo sapiens), sequence (Q99986 whole entry): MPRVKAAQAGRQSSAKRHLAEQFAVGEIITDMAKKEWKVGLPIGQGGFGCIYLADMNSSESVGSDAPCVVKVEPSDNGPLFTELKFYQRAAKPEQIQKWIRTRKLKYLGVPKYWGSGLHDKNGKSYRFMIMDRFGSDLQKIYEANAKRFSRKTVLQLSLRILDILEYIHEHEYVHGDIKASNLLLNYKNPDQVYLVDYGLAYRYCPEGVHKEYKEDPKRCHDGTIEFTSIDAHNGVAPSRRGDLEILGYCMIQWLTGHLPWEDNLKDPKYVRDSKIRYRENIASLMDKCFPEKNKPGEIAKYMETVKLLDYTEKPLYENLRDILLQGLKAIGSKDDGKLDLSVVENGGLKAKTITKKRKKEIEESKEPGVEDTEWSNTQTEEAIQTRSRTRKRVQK

[10] = molecular target: Serine/threonine-protein kinase WNK1 (Homo sapiens) (UniProt Q9H4A3)
[11] = molecular target: T4, Tyrosine-protein kinase ZAP-70 (Homo sapiens) (UniProt P43403)
T4 sequence (whole entry): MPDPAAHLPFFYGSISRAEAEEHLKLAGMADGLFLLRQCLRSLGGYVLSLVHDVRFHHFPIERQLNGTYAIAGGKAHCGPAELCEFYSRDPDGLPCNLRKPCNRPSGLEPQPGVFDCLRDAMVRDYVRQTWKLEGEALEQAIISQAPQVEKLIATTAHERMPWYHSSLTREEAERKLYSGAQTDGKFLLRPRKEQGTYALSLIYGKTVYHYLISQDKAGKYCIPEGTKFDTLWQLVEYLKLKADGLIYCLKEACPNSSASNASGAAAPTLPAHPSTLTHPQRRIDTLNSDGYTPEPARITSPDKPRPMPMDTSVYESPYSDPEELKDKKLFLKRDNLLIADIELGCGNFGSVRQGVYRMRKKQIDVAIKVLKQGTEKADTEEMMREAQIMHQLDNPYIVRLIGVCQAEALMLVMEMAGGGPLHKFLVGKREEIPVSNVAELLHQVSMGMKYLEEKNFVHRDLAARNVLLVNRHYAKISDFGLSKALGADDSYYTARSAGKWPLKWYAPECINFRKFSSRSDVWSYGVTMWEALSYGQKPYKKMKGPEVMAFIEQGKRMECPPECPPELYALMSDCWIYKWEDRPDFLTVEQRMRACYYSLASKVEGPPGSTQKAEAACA

[12] = molecular target: Phosphatidylinositol 4-phosphate 5-kinase type-1 alpha (Homo sapiens) (UniProt Q99755)
Phosphatidylinositol 4-phosphate 5-kinase type-1 alpha (Homo sapiens), sequence (Q99755 whole entry): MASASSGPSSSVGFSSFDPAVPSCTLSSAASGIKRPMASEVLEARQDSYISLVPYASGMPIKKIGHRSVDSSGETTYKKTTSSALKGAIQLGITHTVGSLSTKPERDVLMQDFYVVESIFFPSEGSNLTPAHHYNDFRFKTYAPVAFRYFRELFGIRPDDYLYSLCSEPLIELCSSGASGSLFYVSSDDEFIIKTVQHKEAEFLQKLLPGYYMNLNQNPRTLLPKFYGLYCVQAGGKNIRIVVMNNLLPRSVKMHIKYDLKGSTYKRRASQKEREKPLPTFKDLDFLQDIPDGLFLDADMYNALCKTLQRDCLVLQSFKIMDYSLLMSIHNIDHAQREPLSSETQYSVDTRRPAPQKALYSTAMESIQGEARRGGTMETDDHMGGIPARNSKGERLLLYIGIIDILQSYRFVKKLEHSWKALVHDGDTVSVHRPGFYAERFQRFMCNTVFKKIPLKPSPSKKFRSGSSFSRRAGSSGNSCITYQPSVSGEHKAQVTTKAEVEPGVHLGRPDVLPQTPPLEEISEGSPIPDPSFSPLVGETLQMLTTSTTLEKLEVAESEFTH

Measured: % residual kinase activity

Calcium/calmodulin-dependent protein kinase kinase 1 (Homo sapiens), sequence (Q8N5S9 whole entry, looked up): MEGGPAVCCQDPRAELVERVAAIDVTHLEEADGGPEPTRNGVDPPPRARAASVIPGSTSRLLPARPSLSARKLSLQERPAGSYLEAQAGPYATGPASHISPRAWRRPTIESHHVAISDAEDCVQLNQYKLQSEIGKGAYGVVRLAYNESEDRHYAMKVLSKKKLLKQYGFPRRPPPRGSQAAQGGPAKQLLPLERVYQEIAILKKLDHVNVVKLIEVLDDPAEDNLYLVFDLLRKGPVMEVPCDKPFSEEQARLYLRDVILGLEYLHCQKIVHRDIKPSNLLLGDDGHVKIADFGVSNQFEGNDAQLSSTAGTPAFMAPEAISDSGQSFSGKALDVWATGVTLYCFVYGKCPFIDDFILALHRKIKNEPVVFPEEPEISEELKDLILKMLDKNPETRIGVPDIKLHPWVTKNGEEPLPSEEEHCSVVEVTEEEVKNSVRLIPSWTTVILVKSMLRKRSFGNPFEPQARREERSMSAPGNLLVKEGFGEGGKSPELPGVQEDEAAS

CN1CCN(c2cnc3c(C4CCN(C(=O)c5ccc(OC(F)(F)F)cc5N)CC4)ncnc3c2)CC1 [BAY-885]
inactive: [1] 102% | [2] 105% | [3] 96% | [4] 91% | [5] 101% | [6] 107% | [7] 102% | [8] 106% | [9] 100% | [10] 105% | [11] 108% | [12] 98%
